{"source": "ChEMBL document CHEMBL1201862", "about": "“PubChem BioAssay data set” (2004)", "key": {"[1]": {"experiment": "CCR5-tropic HIV-1 fusion blockers – cell-based, CCR5-tropic Env, dose response (AID 2279)", "assay_type": "functional"}, "[2]": {"target": "T1, Probable nicotinate-nucleotide adenylyltransferase (Staphylococcus aureus (strain N315), UniProt P65502)", "T1 sequence (P65502 whole entry)": "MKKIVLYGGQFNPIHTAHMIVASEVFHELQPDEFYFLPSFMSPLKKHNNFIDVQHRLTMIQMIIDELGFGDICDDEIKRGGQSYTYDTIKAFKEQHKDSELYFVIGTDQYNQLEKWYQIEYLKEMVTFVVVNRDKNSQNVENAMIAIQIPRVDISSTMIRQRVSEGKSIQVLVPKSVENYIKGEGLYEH", "assay_type": "functional, Staphylococcus aureus subsp. aureus N315"}, "[3]": {"target": "T1, Probable nicotinate-nucleotide adenylyltransferase", "assay_type": "functional, Staphylococcus aureus subsp. aureus N315", "details": "read-out: IC50_Mean"}, "ELAV-like protein 1": {"target": "ELAV-like protein 1 (Homo sapiens, UniProt Q15717)", "sequence (Q15717 whole entry)": "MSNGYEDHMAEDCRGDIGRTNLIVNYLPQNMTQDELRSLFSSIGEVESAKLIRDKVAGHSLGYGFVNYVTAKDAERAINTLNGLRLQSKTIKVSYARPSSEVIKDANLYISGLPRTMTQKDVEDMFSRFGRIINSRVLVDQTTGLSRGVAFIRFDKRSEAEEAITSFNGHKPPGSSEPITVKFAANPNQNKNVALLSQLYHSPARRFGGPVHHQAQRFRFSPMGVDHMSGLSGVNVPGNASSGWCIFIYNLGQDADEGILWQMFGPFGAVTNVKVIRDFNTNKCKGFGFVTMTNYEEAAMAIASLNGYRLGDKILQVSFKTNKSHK", "experiment": "Identify HuR specific inhibitors.", "assay_type": "functional"}, "[4]": {"target": "Envelope glycoprotein gp160 (Human immunodeficiency virus 1, UniProt Q6QLK5)", "sequence (Q6QLK5 whole entry, the tested form may be a part)": "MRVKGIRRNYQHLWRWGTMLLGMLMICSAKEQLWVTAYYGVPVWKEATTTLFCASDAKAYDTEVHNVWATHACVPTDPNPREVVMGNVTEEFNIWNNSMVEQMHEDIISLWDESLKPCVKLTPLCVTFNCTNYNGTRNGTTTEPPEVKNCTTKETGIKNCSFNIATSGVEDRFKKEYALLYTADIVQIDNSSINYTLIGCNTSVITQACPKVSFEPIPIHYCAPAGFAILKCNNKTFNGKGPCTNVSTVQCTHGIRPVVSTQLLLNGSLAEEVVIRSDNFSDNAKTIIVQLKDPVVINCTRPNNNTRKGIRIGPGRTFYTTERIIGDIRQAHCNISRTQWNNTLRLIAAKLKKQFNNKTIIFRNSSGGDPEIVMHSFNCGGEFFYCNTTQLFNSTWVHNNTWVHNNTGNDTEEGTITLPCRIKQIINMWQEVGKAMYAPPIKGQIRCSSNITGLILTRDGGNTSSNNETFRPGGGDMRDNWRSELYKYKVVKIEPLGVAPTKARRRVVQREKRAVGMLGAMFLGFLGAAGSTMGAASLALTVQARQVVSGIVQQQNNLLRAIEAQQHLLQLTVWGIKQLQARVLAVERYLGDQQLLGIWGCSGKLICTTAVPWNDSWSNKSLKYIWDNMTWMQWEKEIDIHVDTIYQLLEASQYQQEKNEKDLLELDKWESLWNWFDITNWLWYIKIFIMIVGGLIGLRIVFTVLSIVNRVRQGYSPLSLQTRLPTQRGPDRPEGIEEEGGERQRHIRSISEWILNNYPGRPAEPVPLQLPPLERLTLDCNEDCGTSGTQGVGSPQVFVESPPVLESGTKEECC", "experiment": "cell-free HIV fusion peptide-binding blockers – biochemical, uHTS, fluorescence dequenching, […] (AID 1986)"}, "[5]": {"target": "Glyceraldehyde-3-phosphate dehydrogenase (Homo sapiens, UniProt P04406)", "sequence (P04406 whole entry)": "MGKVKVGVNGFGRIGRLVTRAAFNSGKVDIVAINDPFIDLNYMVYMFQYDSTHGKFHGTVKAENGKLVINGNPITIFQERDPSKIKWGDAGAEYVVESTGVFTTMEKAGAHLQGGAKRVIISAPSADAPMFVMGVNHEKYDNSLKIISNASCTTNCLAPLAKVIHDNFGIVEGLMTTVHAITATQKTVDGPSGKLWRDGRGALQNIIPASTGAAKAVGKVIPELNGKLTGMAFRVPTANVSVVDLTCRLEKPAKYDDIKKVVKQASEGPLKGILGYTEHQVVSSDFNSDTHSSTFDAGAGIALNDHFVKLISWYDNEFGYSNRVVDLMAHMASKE"}, "[6]": {"target": "G-protein coupled receptor 55 (Homo sapiens, UniProt Q9Y2T6)", "sequence (Q9Y2T6 whole entry)": "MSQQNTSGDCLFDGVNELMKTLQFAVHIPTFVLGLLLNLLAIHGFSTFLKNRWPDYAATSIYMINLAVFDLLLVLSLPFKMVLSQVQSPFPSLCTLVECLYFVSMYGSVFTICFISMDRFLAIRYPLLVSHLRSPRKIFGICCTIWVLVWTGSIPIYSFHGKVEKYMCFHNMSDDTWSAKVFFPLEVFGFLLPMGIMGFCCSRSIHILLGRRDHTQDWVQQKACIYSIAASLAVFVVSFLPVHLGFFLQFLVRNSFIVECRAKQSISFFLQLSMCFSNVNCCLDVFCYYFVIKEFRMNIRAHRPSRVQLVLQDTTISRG", "experiment": "selective activators of receptor GPR55 – imaging, U2OS cells, beta-arrestin-GFP redistribution, primary screen (AID 1961)", "assay_type": "functional"}, "INS1": {"tested_on": "INS1", "experiment": "INS-1E survival protection against cytokine death – cell-based, luminescence, retest, dose response (AID 449756);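 note: cell death triggered by IL-1 beta plus TNF-alpha plus IFN-gamma mixture; protective hits raise ATP signal compared with cytokine alone wells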", "assay_type": "functional", "details": "Rattus norvegicus"}, "[7]": {"target": "Luciferin 4-monooxygenase (Photinus pyralis, UniProt P08659)", "sequence (P08659 whole entry)": "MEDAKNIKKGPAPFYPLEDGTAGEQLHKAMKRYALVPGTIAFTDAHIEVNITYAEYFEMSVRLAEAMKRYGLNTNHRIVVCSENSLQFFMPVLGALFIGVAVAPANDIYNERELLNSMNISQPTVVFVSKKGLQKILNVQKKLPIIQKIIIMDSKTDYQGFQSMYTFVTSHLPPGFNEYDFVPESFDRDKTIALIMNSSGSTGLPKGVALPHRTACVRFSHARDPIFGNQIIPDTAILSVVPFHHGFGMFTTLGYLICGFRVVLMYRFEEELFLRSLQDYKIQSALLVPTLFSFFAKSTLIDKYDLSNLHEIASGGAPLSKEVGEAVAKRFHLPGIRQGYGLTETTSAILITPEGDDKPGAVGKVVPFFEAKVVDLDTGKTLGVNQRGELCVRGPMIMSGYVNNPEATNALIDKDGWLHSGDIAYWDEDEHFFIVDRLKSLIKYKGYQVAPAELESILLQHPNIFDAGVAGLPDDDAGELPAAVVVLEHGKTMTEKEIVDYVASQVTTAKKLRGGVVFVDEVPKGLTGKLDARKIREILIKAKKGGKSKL", "experiment": "Counter Screen for Luciferase-based Assay Positives. [Related pubchem assays: 620, 618, 411 ]"}, "Streptokinase A": {"target": "T2, Streptokinase A (Streptococcus pyogenes serotype M1, UniProt P10520)", "T2 sequence (P10520 whole entry)": "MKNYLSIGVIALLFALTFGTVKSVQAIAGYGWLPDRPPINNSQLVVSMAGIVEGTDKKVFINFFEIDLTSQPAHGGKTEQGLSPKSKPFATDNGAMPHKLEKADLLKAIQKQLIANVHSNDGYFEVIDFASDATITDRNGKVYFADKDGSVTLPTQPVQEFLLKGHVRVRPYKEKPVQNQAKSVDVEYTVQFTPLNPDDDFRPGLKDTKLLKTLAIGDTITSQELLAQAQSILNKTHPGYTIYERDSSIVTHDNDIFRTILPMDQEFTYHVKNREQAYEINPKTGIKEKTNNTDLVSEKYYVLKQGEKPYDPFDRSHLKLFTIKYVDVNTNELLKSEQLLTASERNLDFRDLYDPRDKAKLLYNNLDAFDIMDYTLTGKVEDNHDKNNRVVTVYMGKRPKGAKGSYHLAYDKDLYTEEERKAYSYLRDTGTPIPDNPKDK", "experiment": "viability-normalized secreted streptokinase activity reduction – plasminogen activation absorbance, OD405, dose response (AID 1914);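 note: secreted streptokinase activity via plasminogen activation per viability signal from cell pellet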", "assay_type": "functional, Streptococcus pyogenes M1 GAS"}, "[8]": {"experiment": "microbe, parasite or virus in culture", "assay_type": "functional", "details": "Mycobacterium tuberculosis"}, "HT-1080": {"tested_on": "HT-1080", "experiment": "HT1080 cell viability loss – fluorescence readout (AID 620)", "assay_type": "functional, cell-based", "details": "Homo sapiens"}, "[9]": {"experiment": "IC50 of Artemis nuclease activity blockers – biochemical, fluorescence intensity, dose response (AID 720701);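 note: Artemis endonuclease enzyme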", "assay_type": "functional"}, "[10]": {"tested_on": "Streptococcus sp. 'group A'", "experiment": "Streptococcus pyogenes SK(-)GAS viability under kanamycin – luminescence, BacTiterGlo, confirmation, counter-screen for streptokinase expression inhibitor project, dose response (AID 1900)", "assay_type": "functional, organism-based"}, "Streptococcus": {"tested_on": "Streptococcus", "experiment": "GAS UMAA2166 growth inhibition – luminescence, BacTiterGlo, counter-screen for streptokinase expression inhibitor project, dose response (AID 1915);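 note: potency for reduction of bacterial viability or growth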", "assay_type": "functional, organism-based"}, "[11]": {"target": "T3, Runt-related transcription factor 1/Core-binding factor subunit beta (Homo sapiens, UniProt Q01196+Q13951)", "T3 sequence (Q01196 whole entry, the tested form may be a part)": "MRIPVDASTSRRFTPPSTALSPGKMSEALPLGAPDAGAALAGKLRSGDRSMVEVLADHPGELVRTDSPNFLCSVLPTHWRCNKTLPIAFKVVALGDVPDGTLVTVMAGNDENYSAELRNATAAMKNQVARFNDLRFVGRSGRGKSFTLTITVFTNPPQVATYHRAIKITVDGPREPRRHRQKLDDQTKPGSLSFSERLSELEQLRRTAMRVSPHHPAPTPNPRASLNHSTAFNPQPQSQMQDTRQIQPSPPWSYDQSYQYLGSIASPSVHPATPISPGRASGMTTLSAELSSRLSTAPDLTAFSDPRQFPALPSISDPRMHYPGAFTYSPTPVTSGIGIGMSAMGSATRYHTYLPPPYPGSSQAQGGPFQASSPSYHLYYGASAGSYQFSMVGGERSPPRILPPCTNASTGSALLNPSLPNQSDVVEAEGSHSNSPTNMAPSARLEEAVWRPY", "T3 sequence (Q13951 whole entry, the tested form may be a part)": "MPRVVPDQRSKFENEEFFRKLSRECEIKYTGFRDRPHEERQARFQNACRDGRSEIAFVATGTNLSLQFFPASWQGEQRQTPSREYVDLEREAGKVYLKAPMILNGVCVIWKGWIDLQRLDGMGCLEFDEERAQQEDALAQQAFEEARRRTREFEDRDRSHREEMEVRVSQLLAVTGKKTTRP", "experiment": "disruptors of Runt domain/CBFb-SMMHC interaction – biochemical, FRET, Cerulean-Runt, Venus-CBFb-SMMHC, uHTS, […] (AID 1434)", "assay_type": "protein assay"}, "[12]": {"target": "T3, Runt-related transcription factor 1/Core-binding factor subunit beta", "experiment": "Runt domain/CBFb-SMMHC interaction disruptors – biochemical, TR-FRET (AID 1438)", "assay_type": "protein assay"}, "Trypsin": {"target": "Trypsin (Sus scrofa, UniProt P00761)", "sequence (P00761 whole entry)": "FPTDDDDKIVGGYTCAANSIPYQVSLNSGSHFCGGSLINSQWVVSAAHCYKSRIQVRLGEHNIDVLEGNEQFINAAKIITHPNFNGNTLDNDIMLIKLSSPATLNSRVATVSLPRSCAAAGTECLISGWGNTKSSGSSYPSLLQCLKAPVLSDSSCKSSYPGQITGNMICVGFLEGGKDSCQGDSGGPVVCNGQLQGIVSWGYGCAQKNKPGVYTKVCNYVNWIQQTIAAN", "experiment": "trypsin protease activity blockade – biochemical, quenched peptide fluorescence, cherry-pick, selectivity assay for Rce1 protease inhibitor project, dose response (AID 488789)"}, "CAAX prenyl protease 2 [13]": {"target": "T4, CAAX prenyl protease 2 (Homo sapiens, UniProt Q9Y256)", "T4 sequence (Q9Y256 whole entry)": "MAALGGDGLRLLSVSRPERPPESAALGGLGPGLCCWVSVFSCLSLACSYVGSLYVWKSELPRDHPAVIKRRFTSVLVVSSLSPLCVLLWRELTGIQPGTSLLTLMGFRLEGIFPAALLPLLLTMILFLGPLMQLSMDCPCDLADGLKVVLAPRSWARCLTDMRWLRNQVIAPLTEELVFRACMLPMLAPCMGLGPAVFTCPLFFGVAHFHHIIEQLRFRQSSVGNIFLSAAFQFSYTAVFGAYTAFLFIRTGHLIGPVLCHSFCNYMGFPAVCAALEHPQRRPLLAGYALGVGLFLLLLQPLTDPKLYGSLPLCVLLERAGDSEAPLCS", "experiment": "inhibition of Ras-converting CAAX protease Rce1 – biochemical, yeast membranes, quenched-peptide fluorescence, cherry-pick, dose response (AID 588849)"}, "CAAX prenyl protease 2 [14]": {"target": "CAAX prenyl protease 2 (Saccharomyces cerevisiae S288c, UniProt Q03530)", "sequence (Q03530 whole entry)": "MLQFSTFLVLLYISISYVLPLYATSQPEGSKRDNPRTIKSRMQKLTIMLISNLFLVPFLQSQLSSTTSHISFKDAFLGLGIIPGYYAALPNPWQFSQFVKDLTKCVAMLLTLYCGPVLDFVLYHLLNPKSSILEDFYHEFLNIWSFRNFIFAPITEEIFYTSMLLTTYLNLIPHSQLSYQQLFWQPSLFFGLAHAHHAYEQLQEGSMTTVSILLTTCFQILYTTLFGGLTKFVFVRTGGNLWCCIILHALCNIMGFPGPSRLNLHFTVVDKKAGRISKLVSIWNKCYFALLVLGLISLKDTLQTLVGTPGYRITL", "assay_type": "biochemical"}, "[15]": {"experiment": "viability loss in HeLa cells – cytotoxicity control for MgcRacGAP inhibitor project, dose response (AID 624300)", "assay_type": "functional"}, "[16]": {"target": "T5, Rac GTPase-activating protein 1 (Homo sapiens, UniProt Q9H0H5)", "T5 sequence (Q9H0H5 whole entry)": "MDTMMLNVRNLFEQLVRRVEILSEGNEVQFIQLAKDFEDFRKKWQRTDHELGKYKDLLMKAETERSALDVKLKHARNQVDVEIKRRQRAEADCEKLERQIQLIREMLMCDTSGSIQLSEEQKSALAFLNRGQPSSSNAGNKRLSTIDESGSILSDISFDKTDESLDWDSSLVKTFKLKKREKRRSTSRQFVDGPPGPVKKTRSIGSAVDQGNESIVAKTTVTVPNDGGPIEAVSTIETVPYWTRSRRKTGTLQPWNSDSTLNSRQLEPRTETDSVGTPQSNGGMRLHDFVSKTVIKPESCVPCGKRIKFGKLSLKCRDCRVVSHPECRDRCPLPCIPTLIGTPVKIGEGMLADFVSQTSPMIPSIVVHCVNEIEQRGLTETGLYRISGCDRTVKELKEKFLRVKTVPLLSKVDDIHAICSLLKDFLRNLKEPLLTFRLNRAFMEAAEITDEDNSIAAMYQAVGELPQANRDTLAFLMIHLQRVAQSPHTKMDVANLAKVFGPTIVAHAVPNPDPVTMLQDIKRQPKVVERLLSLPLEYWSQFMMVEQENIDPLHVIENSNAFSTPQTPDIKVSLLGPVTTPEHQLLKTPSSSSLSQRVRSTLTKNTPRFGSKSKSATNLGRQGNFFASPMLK", "experiment": "blockers of MgcRacGAP-driven Rac1 GTP hydrolysis – biochemical, ADP Hunter fluorescence, primary and confirmatory, confirmation (AID 624330)", "assay_type": "functional"}, "[17]": {"target": "E3 ubiquitin-protein ligase Mdm2/Protein Mdm4 (Homo sapiens, UniProt O15151+Q00987)", "sequence (Q00987 whole entry)": "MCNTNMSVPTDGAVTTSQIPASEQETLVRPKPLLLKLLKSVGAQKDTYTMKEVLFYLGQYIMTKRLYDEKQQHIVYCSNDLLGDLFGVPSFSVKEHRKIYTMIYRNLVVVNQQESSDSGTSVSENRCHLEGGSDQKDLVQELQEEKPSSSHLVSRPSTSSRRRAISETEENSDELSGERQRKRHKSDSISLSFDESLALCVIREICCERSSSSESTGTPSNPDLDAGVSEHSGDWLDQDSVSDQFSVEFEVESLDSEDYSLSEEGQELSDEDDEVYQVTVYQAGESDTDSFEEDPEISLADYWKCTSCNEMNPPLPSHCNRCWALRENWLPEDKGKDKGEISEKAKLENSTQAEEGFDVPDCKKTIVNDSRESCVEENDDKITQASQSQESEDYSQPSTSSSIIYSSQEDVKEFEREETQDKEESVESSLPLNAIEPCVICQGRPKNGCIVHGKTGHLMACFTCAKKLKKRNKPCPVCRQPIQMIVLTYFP", "sequence (O15151 whole entry)": "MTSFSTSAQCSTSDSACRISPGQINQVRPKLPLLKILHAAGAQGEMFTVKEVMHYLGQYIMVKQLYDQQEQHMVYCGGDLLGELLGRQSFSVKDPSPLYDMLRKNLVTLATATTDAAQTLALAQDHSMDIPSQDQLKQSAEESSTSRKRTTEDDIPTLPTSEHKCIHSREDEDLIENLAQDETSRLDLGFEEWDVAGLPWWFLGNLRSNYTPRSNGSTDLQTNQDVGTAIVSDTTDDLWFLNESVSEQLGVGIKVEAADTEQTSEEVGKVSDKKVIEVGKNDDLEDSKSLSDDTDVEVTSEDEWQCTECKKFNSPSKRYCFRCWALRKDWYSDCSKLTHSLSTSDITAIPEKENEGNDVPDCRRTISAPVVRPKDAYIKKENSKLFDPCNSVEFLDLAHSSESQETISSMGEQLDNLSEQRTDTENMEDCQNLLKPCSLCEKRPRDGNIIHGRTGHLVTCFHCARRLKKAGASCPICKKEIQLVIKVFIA", "experiment": "disruption of Mdm2/MdmX protein binding – luminescence detection, dose response (AID 504593)", "assay_type": "functional"}}, "note": "The source made the active and inactive calls.", "data": [{"compound": "COC1C(OC(=O)c2ccc(C)[nH]2)C(O)C(Oc2ccc3c(O)c(NC(=O)c4ccc(O)c(CC=C(C)C)c4)c(=O)oc3c2Cl)OC1(C)C", "note": "(stereo not drawn);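 for IC50 Mean: confirmatory dose-response retesting of NadD inhibitor hits first found in an ultra-high-throughput screen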", "values": [{"measurement": "IC50", "setting": "[1]", "result": "38.4 µM (active)"}, {"measurement": "IC50", "setting": "[2]", "result": "2.1 µM (active)"}, {"measurement": "IC50", "setting": "[3]", "result": "7.01 µM (active)"}, {"measurement": "IC50", "setting": "ELAV-like protein 1", "result": "41.9 µM (active)"}, {"measurement": "IC50", "setting": "[4]", "result": "13 µM (active)"}]}, {"compound": "Cc1cc(/C=N/n2cnnc2)c(C)n1-c1ccc(OCc2ccc(Cl)cc2Cl)cc1", "values": [{"measurement": "IC50", "setting": "[5]", "result": "> 100 µM (not active)"}, {"measurement": "EC50", "setting": "[6]", "result": "1.35 µM (active)"}, {"measurement": "AC50", "setting": "INS1", "result": "1.6 µM (active)"}, {"measurement": "EC50", "setting": "[7]", "result": "0.28 µM (active)"}, {"measurement": "EC50", "setting": "Streptokinase A", "result": "> 150 µM (not active)"}, {"measurement": "CC50", "setting": "[8]", "result": "14.1 µM (active)"}, {"measurement": "EC50", "setting": "HT-1080", "result": "> 50 µM (not active)"}, {"measurement": "IC50", "setting": "[9]", "result": "5.84 µM (active)"}, {"measurement": "EC50", "setting": "[10]", "result": "2.46 µM (active)"}, {"measurement": "EC50", "setting": "Streptococcus", "result": "4.73 µM (active)"}]}, {"compound": "Cc1cc(C)n2nc3nc4c(cc3c2n1)CCCC4", "values": [{"measurement": "IC50", "setting": "[11]", "result": "36.8 µM (active)"}, {"measurement": "IC50", "setting": "[12]", "result": "> 100 µM (inactive)"}]}, {"compound": "COc1cc(-c2nc3ccccn3c2NCC2CCCO2)ccc1O", "note": "(stereo not drawn)", "values": [{"measurement": "AC50", "setting": "Trypsin", "result": "12.8 µM (active)"}, {"measurement": "AC50", "setting": "CAAX prenyl protease 2 [13]", "result": "6.82 µM (active)"}, {"measurement": "AC50", "setting": "CAAX prenyl protease 2 [14]", "result": "23.4 µM (active)"}, {"measurement": "CC50", "setting": "[15]", "result": "100 µM (active)"}, {"measurement": "IC50", "setting": "[16]", "result": "49.9 µM (active)"}]}, {"compound": "COc1cc(-c2nc(-c3ccc(NC(=O)c4ccc5c(c4)OCO5)cc3)no2)cc(OC)c1OC", "values": [{"measurement": "IC50", "setting": "[17]", "result": "3.91 µM (active)"}]}]}
